Measured values: patent US6709851B1, “Stabilization of helicobacter urease” (OraVax-Merieux Co., priority 1997, dated 2004)
Entries after “also recorded” stand apart in the source; their conditions may differ. Read-outs that look alike come from different tables or passages of the source.

What was measured:
[1] = target: T1, recombinant H. pylori apourease (Helicobacter pylori, UniProt P69996); assay type: biochemical; conditions: for activation of modified urease after removal of excess modifying agent: excess agent removed by diafiltration; for activation with Ni++ and bicarbonate of urease modified by the compound: urease modified before activation
T1 sequence (P69996 whole entry, looked up): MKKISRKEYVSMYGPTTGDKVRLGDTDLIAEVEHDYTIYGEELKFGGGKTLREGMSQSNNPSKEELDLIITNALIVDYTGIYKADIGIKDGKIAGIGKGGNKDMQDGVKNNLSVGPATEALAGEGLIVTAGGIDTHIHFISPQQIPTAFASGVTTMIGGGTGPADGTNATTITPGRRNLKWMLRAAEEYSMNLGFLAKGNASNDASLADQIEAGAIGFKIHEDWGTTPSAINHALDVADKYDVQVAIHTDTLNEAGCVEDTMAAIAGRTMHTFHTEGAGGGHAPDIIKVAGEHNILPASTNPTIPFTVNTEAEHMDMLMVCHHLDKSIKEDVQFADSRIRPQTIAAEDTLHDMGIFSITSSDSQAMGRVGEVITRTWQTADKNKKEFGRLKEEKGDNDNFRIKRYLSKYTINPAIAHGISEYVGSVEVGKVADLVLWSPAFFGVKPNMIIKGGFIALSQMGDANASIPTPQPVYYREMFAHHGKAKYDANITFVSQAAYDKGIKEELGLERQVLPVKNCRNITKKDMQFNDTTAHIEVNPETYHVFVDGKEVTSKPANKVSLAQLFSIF

[2] = Molecular stability and aggregation of urease by analytical size exclusion HPLC; conditions: for effect of additive on molecular association of urease: dialysis against PBS and storage at 4° C.; for effect of blocking free sulfhydryl groups on molecular association of urease: treated urease in solution or dialyzed in PBS
[3] = target: T1, recombinant H. pylori apourease; assay type: biochemical; conditions: for effect of imidazole on activation by Ni++ and bicarbonate: imidazole 2.5-25 mM, 200 mM bicarbonate, 200 μM Ni++
[4] = target: in vitro activated urease (Helicobacter pylori, UniProt P69996); assay type: biochemical
Chain of in vitro activated urease (P69996 whole entry, looked up): as above

[5] = compound added along with activation buffer

[Mn+2] [Mn^++]
activation of recombinant urease by metal ion with bicarbonate [1]: resulted in activation of urease
effect of other metal ion on activation of recombinant urease by Ni++ [1]: enhanced the activation; also recorded: synergistic effect

OCCS [β-mercaptoethanol]
effect of additive on molecular association of urease [2]: stabilized urease in the hexameric form; also recorded: prevented the molecular associations

c1c[nH]cn1 [imidazole]
effect of imidazole on activation by Ni++ and bicarbonate [3]: inhibits urease activation
effect of imidazole on activation by Ni++ and bicarbonate ([3]; listed as Imidazole): inhibit the activation of recombinant urease in a concentration-dependent manner

OC[C@H]1O[C@@](CO)(O[C@H]2O[C@H](CO)[C@@H](O)[C@H](O)[C@H]2O)[C@@H](O)[C@@H]1O [Sucrose]
effect of additive on molecular association of urease [2]: significantly reduced the extent of aggregation

[Ni+2] [Ni^++]
activation of recombinant urease by metal ion with bicarbonate [1]: resulted in activation of urease

CCN1C(=O)C=CC1=O [NEM, N-ethyl maleimide]
activation by bicarbonate and nickel of NEM-modified apourease ([1]; 9 mM NEM, room temperature, 60 minutes, 20 mM Hepes pH 7.5): not activated

O=C(O)CN(CCN(CC(=O)O)CC(=O)O)CC(=O)O [EDTA]
effect of additive on molecular association of urease [2]: did not have any significant effect

O=[N+]([O-])c1ccc(F)c([N+](=O)[O-])c1 [DNFB, dinitrofluorobenzene]
effect of DNFB on pre-activated urease activity [4]: inactivates pre-activated urease in a pH-dependent manner
activation with compound included in the activation mixture [1]: activation is blocked
in vitro activation after DNFB treatment for 5, 15, 30, and 60 minutes [1]: blocks in vitro activation
pH dependence of DNFB blocking of in vitro activation [1]: more effective at alkaline pH (pH>7.5) than at neutral or acidic pH; also recorded: pH-dependent
in vitro activation of apourease modified with DNFB ([1]; pH 8): blocked in vitro activation; also recorded: not activated
effect of DNFB treatment on molecular stability ([2]; dialyzed against phosphate buffer overnight): stabilizes the hexameric form of urease

NC(=O)CI [iodoacetamide]
activation with compound included in the activation mixture [1, 5]: blocking of activation
activation of modified urease after removal of excess modifying agent [1]: not activated
activation with Ni++ and bicarbonate of urease modified by the compound [1]: not activated; also recorded: inhibits activation
effect of blocking free sulfhydryl groups on molecular association of urease [2]: stabilizing effect on urease in solution; also recorded: reduce the molecular associations; also recorded: stabilized the hexameric form of urease and prevented molecular association

[Cu+2] [Cu^++]
effect of other metal ion on Ni++ activation by native PAGE and silver staining [3]: inhibitory effect
effect of other metal ion on activation of recombinant urease by Ni++ [1]: inhibited activation; also recorded: antagonistic effects

[Mg+2] [Mg^++]
effect of other metal ion on activation of recombinant urease by Ni++ [1]: no detectable effect

O=C(O)c1cc(SSc2ccc([N+](=O)[O-])c(C(=O)O)c2)ccc1[N+](=O)[O-] [DTNB, 5-5′-dithio-bis-2-nitrobenzoic acid]
activation with compound included in the activation mixture [1, 5]: blocking of activation
activation of modified urease after removal of excess modifying agent [1]: not activated
activation with Ni++ and bicarbonate of urease modified by the compound [1]: not activated
effect of blocking free sulfhydryl groups on molecular association of urease [2]: stabilizing effect on urease in solution; also recorded: reduce the molecular associations; also recorded: stabilized the hexamer form of urease and prevented molecular association

[Co+2] [Co^++]
activation of recombinant urease by metal ion with bicarbonate [1]: do not cause urease activation
effect of other metal ion on activation of recombinant urease by Ni++ [1]: inhibit activation

[Fe+2] [Fe^++]
effect of other metal ion on Ni++ activation by native PAGE and silver staining [3]: inhibitory effect
effect of other metal ion on activation of recombinant urease by Ni++ [1]: inhibited activation; also recorded: antagonistic effects
